Data published in ChEMBL document CHEMBL1201862, “PubChem BioAssay data set” (2004).
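A five-concentration, 48-hour dose response in 96-well plates underlies each endpoint, interpolated linearly between surrounding concentrations. Abbreviation: GI50, concentration required for 50% inhibition of growth.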 The source made the active and inactive calls. Rule as the data show it: active = GI50 up to about 1.1 µM and inactive = higher.

Key:
Assay in all cases: NCI-60 cell line screen, 48 h
DMS-114 = tested on: DMS-114
KM-20L2 = tested on: KM-20L2
LXFL 529 = tested on: LXFL 529
M19-MEL = tested on: M19-MEL
SNB-78 = tested on: SNB-78
XF498 = tested on: XF498
DMS-273 = tested on: DMS-273
RXF 631 = tested on: RXF 631
HOP-18 = tested on: HOP-18

SMILES	GI50 (DMS-114)	GI50 (KM-20L2)	GI50 (LXFL 529)	GI50 (M19-MEL)	GI50 (SNB-78)	GI50 (XF498)	GI50 (DMS-273)	GI50 (RXF 631)	GI50 (HOP-18)
COc1cccc(/C=C(\NC(C)=O)c2nc3cc(Cl)ccc3[nH]2)c1	> 100 µM (inactive)	> 100 µM (inactive)	> 100 µM (inactive)	> 100 µM (inactive)	> 100 µM (inactive)	> 100 µM (inactive)			
Cc1ccc(S(=O)(=O)N(/N=C/C=C/c2ccccc2)c2nnc(-c3ccccc3)c(-c3ccccc3)n2)cc1	16.3 µM (inactive)	17.9 µM (inactive)		28.1 µM (inactive)	16.8 µM (inactive)		18.9 µM (inactive)		
O=C(COC(=O)c1cccc2c(=O)c3ccccc3[nH]c12)Nc1ccc(S(=O)(=O)Nc2ncccn2)cc1	43.4 µM (inactive)	65.9 µM (inactive)	47.5 µM (inactive)	48.2 µM (inactive)	30.6 µM (inactive)	26.5 µM (inactive)	27.5 µM (inactive)	94 µM (inactive)	
CSc1snc2sc3c(Cl)nnnc3c12	13.2 µM (inactive)	14 µM (inactive)	2.11 µM (inactive)	9.35 µM (inactive)	13.8 µM (inactive)	14.4 µM (inactive)	11.4 µM (inactive)	16.1 µM (inactive)	19.1 µM (inactive)
CCC1(N=[N+]=[N-])C(=O)c2ccccc2N(C)C1=O (stereo not drawn)	> 100 µM (inactive)	> 100 µM (inactive)	> 100 µM (inactive)	> 100 µM (inactive)	> 100 µM (inactive)		> 100 µM (inactive)		82.2 µM (inactive)
O=C(OCN1C(=O)C2C3C=CC(C2C1=O)C1C2C(=O)N(COC(=O)C4CCCN4)C(=O)C2C31)C1CCCN1 (stereo not drawn)	25.9 µM (inactive)	64.1 µM (inactive)	78.7 µM (inactive)	> 77.8 µM (inactive)	> 100 µM (inactive)	> 75.9 µM (inactive)	38.5 µM (inactive)	> 64.7 µM (inactive)	> 100 µM (inactive)
Cc1ccc(-c2cc(-c3ccco3)c(C#N)c(=O)n2C2OC(OC(=O)c3ccccc3)C(OC(=O)c3ccccc3)C2OC(=O)c2ccccc2)cc1 (stereo not drawn)	38.6 µM (inactive)	> 100 µM (inactive)	> 100 µM (inactive)	> 100 µM (inactive)	83.6 µM (inactive)		97.1 µM (inactive)	> 100 µM (inactive)	> 100 µM (inactive)
CN1C(c2ccccc2)CC(=NOCc2ccccc2)CC1c1ccccc1 (stereo not drawn)	17.7 µM (inactive)	> 80.2 µM (inactive)	16.8 µM (inactive)	> 100 µM (inactive)	42.5 µM (inactive)	> 100 µM (inactive)	33.7 µM (inactive)	31.2 µM (inactive)	48 µM (inactive)
O=C(COc1ccc2c(=O)cc(-c3ccccc3)oc2c1)N1CCN(c2ccccc2)CC1	24.5 µM (inactive)	37.7 µM (inactive)	34.1 µM (inactive)	62.2 µM (inactive)	> 100 µM (inactive)				41.9 µM (inactive)
CC1(Br)C(=O)NC(=O)N(C2CC(N=[N+]=[N-])C(CO)O2)C1N=[N+]=[N-] (stereo not drawn)	> 100 µM (inactive)	> 100 µM (inactive)	> 100 µM (inactive)	> 100 µM (inactive)	> 100 µM (inactive)	> 100 µM (inactive)	> 100 µM (inactive)	> 100 µM (inactive)	
CC(=O)/C(=C\c1cccc([N+](=O)[O-])c1)C(=O)Nc1ccccc1C	> 100 µM (inactive)	> 100 µM (inactive)	> 100 µM (inactive)	> 100 µM (inactive)	> 100 µM (inactive)	> 100 µM (inactive)			> 100 µM (inactive)
O=C1OCC(C(=O)c2cccc(O)c2)C1=O (stereo not drawn)	> 100 µM (inactive)	> 100 µM (inactive)	> 100 µM (inactive)	> 100 µM (inactive)	> 100 µM (inactive)		> 100 µM (inactive)	> 100 µM (inactive)	> 100 µM (inactive)
O=C1CCC[C@]2(CCCC(=O)N2)C1	> 100 µM (inactive)	> 100 µM (inactive)	> 100 µM (inactive)	> 100 µM (inactive)	> 94 µM (inactive)	> 100 µM (inactive)	> 100 µM (inactive)	> 100 µM (inactive)	> 100 µM (inactive)
COC1=CC(=O)C(O)=C(CC2(C)C(C)CCC3(C)C2CCCC3(C)C)C1=O (stereo not drawn)	2.57 µM (inactive)	2.42 µM (inactive)	5.41 µM (inactive)	2.16 µM (inactive)	18.1 µM (inactive)	4.14 µM (inactive)	3.47 µM (inactive)	25.7 µM (inactive)	2.65 µM (inactive)
O=S(=O)(O)C(O)/C=C/c1ccccc1 (stereo not drawn)	65.2 µM (inactive)	> 100 µM (inactive)	> 100 µM (inactive)	> 100 µM (inactive)			> 100 µM (inactive)		> 100 µM (inactive)
COc1c(C)c2c(c(O)c1C/C=C(\C)CCC(=O)O)C(=O)OC2 [MYCOPHENOLIC ACID]	0.845 µM (active)		0.693 µM (active)	1.28 µM (inactive)			0.35 µM (active)		16.1 µM (inactive)
C=CCC(C(=O)OC)C1(C(=O)OC)c2[nH]c3ccccc3c2CCN1Cc1ccccc1 (stereo not drawn)	> 100 µM (inactive)	> 100 µM (inactive)		> 100 µM (inactive)					
CC1=C(N2CC2)C(=O)c2nc3n(c2C1=O)CCC3O (stereo not drawn)	1.03 µM (active)	0.804 µM (active)	0.679 µM (active)	1.54 µM (inactive)	0.0296 µM (active)	14.9 µM (inactive)	0.469 µM (active)		36.6 µM (inactive)
CC1(C)C=N[N+]2(C)C3C=CC(CC3)C12 (stereo not drawn)	> 100 µM (inactive)	> 100 µM (inactive)	> 100 µM (inactive)	> 100 µM (inactive)	> 100 µM (inactive)			> 100 µM (inactive)	> 100 µM (inactive)
O=C1NC(=O)C(C(=O)C(=O)Nc2ccc(Cl)cc2Cl)C(=O)N1	> 100 µM (inactive)	> 100 µM (inactive)	> 100 µM (inactive)	> 100 µM (inactive)	> 100 µM (inactive)			> 100 µM (inactive)	
CSc1nc(NC2OC(COC(C)=O)C(OC(C)=O)C(OC(C)=O)C2OC(C)=O)c(/N=C/C=N/c2c(NC3OC(COC(C)=O)C(OC(C)=O)C(OC(C)=O)C3OC(C)=O)nc(SC)[nH]c2=O)c(=O)[nH]1 (stereo not drawn)	> 100 µM (inactive)	> 100 µM (inactive)	> 100 µM (inactive)	> 100 µM (inactive)	> 100 µM (inactive)		> 100 µM (inactive)	> 100 µM (inactive)	> 100 µM (inactive)
Cc1c(Cl)ccc2c1NC(=O)C2(O)CC(=O)c1cccc2ccccc12 (stereo not drawn)	18.3 µM (inactive)	51.8 µM (inactive)	> 100 µM (inactive)	18.3 µM (inactive)	> 100 µM (inactive)	> 100 µM (inactive)	40.1 µM (inactive)		77.3 µM (inactive)
COC(=O)C1C2CC3C(OC(=O)C31)C2I (stereo not drawn)	> 100 µM (inactive)	> 100 µM (inactive)		> 100 µM (inactive)	> 100 µM (inactive)		> 100 µM (inactive)		
O=C(O)CNc1cc(-c2ccccc2)nc(NCC(=O)O)n1	> 100 µM (inactive)	> 100 µM (inactive)	> 100 µM (inactive)	> 100 µM (inactive)	> 100 µM (inactive)	> 100 µM (inactive)	> 100 µM (inactive)	> 100 µM (inactive)	> 100 µM (inactive)
CNCC(=O)Nc1ccc2c(c1)C(=O)c1ccc(NC(=O)CNC)cc1C2=O	2.03 µM (inactive)	5.3 µM (inactive)	2.8 µM (inactive)		3.05 µM (inactive)	3.32 µM (inactive)	2.6 µM (inactive)		< 0.01 µM (active)
C#Cc1cccc(NC(=O)/C=C\C(=O)O)c1		> 100 µM (inactive)	> 100 µM (inactive)		> 100 µM (inactive)				
CC(=O)O[C@]12CCCCCC1C1(O)C(O)CCC[C@H]12 (stereo partly drawn)	> 100 µM (inactive)	> 100 µM (inactive)	> 100 µM (inactive)	> 100 µM (inactive)	> 100 µM (inactive)	> 100 µM (inactive)	> 100 µM (inactive)		> 100 µM (inactive)
O=C1CCC(c2ccccc2)C(O)(C(=O)O)C1 (stereo not drawn)		> 100 µM (inactive)	> 100 µM (inactive)	> 100 µM (inactive)	> 100 µM (inactive)		> 100 µM (inactive)	> 100 µM (inactive)	> 100 µM (inactive)
C=CC1=C(C)c2cc3[nH]c(cc4nc(cc5[nH]c(cc1n2)c(C)c5CCC(=O)N(CC)CC)C(CCC(=O)N(CC)CC)=C4C)c(C)c3C=C		> 100 µM (inactive)	> 100 µM (inactive)	> 100 µM (inactive)	> 100 µM (inactive)				< 0.01 µM (active)
